Results: patent US20260034115A1, “YAP1 INHIBITORS” (H. LEE MOFFITT CANCER CENTER AND RESEARCH INSTITUTE, INC., priority 2021, published 2026)
Read-outs that look alike come from different tables or passages of the source. Blank lines part the entries; values can stand above or below the compound they belong to.

Tests used:
PC9-OSIMR cells = test: MTT IC50 on Osimertinib-resistant PC9 cells; format: cell-based
PC9 cells = test: MTT IC50 on parental PC9 cells; format: cell-based
PC9luc cells = test: MTT IC50 on PC9 cells expressing a luciferase gene; format: cell-based
PC9luc-OSIMR cells = test: MTT IC50 on PC9-Osimertinib resistant cells expressing a luciferase gene; format: cell-based
Yap1:Oct4 interaction = Yap1:Oct4 interaction (Homo sapiens, UniProt P46937); test: Yap1:Oct4 interaction (in vitro binding assay); conditions: FIG. 1
Yap1:Oct4 interaction, sequence (P46937 whole entry): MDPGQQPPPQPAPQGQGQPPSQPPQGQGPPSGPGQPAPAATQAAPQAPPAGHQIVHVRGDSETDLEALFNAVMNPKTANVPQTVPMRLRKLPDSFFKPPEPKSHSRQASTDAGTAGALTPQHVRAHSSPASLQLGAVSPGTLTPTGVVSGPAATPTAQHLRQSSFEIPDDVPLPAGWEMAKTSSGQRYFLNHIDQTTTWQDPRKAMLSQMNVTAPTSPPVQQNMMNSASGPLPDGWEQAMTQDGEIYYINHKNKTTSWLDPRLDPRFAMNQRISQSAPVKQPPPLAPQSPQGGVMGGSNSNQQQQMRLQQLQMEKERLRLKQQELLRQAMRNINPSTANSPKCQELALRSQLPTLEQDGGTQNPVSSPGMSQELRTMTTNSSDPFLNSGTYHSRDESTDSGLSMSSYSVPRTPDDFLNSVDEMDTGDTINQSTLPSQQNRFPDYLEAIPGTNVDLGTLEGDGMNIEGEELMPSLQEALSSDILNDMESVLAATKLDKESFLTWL

Compound: C=CC(=O)Nc1cc(Nc2nccc(-c3cn(C)c4ccccc34)n2)c(OC)cc1N(C)CCN(C)C [Osimertinib, reference compound]
IC50 (PC9-OSIMR cells; Homo sapiens, PC-9, Osimertinib-resistant PC9 cells, read-out: IC50): 5.2 µM
IC50 (PC9-OSIMR cells; Homo sapiens, PC-9, PC9-OSIMR, read-out: IC50 MTT): 5.25 µM
fold reduction in sensitivity (PC9-OSIMR cells; Osimertinib-resistant vs parental PC9 cells): 325 fold
IC50 (PC9 cells; Homo sapiens, PC-9, EGFR-mutant PC9 cells, read-out: IC50 for Osimertinib): 0.016 µM
IC50 (PC9 cells; Homo sapiens, PC-9, PC9, read-out: IC50 MTT): 0.0162 µM
IC50 (PC9luc cells; Homo sapiens, PC-9): 0.0161 µM
IC50 (PC9luc-OSIMR cells): 4.93 µM

Compound: COC(=O)[C@H](Cc1ccc(OCc2ccccc2)cc1)NC(=O)CC1CCN(CCCc2ccc(Cl)c(Cl)c2)CC1 [SR6-086]
IC50 (Yap1:Oct4 interaction): 1.85 ± 0.89 µM

Compound: COC(=O)[C@H](Cc1ccc(OCc2ccccc2)cn1)NC(=O)CC1CCN(C(=O)CCc2ccc(Cl)c(Cl)c2)CC1 [SR6-095]
IC50 (Yap1:Oct4 interaction): 1.01 ± 0.26 µM

Compound: COC(=O)[C@H](Cn1cc(-c2ccccc2)cn1)NC(=O)CC1CCN(C(=O)CCc2cccc(F)c2)CC1 [SR6-096]
IC50 (Yap1:Oct4 interaction): 0.87 ± 0.32 µM

Compound: COC(=O)[C@H](Cc1ccc(OCc2ccccc2)cc1)NC(=O)CC1CCN(CCCc2ccc(F)c(C#N)c2)CC1 [SR6-170]
IC50 (Yap1:Oct4 interaction): 0.78 ± 0.15 µM

Compound: CCOc1ccc(CCCN2CCC(CC(=O)N[C@@H](Cc3cccc(OC)c3)C(=O)OC)CC2)cc1 [SR7-042]
IC50 (Yap1:Oct4 interaction): 1.4 µM

Compound: COC(=O)[C@H](Cc1cccc(OC)c1)NC(=O)CC1CCN(CCCc2ccc(Cl)c(Cl)c2)CC1 [SR7-045]
IC50 (Yap1:Oct4 interaction): 1.45 µM

Compound: COC(=O)[C@H](Cc1cccc(OC)c1)NC(=O)CC1CCN(CCC(C)(C)C)CC1 [SR7-055]
IC50 (Yap1:Oct4 interaction): > 40 µM

Compound: COC(=O)[C@H](Cc1ccc(OC)cc1)NC(=O)CC1CCN(CCCc2cccc(F)c2)CC1 [SR7-067]
IC50 (PC9-OSIMR cells; PC9-OSIMR, read-out: IC50 MTT): > 40 µM
IC50 (PC9 cells; PC9, read-out: IC50 MTT): > 40 µM
IC50 (PC9luc cells): > 40 µM
IC50 (PC9luc-OSIMR cells): > 40 µM
IC50 (Yap1:Oct4 interaction): 2.56 µM

Second part, led by results:

IC50 (Yap1:Oct4 interaction): 0.75 ± 0.15 µM
Compound: COC(=O)[C@H](Cc1ccc(OCc2ccccc2)cc1)NC(=O)CC1CCN(CCCc2cccc(F)c2)CC1 [SR6-085]

IC50 (Yap1:Oct4 interaction): 0.51 ± 0.08 µM
Compound: CCOc1ccc(CCCN2CCC(CC(=O)N[C@@H](Cc3ccc(OCc4ccccc4)cc3)C(=O)OC)CC2)cc1 [SR6-087]

IC50 (PC9-OSIMR cells; PC9-OSIMR, read-out: IC50 MTT): 5.47 µM
IC50 (PC9luc cells): 1.27 µM
IC50 (PC9luc-OSIMR cells): 4.03 µM
IC50 (Yap1:Oct4 interaction): 0.445 µM
Compound: CCOc1ccc(CCCN2CCC(CC(=O)Nc3ccc(OCc4ccccc4)cc3)CC2)cc1 [SR7-052]
IC50 (PC9 cells; PC9, read-out: IC50 MTT): 1.23 µM

IC50 (PC9-OSIMR cells; PC9-OSIMR, read-out: IC50 MTT): 3.9 µM
IC50 (PC9luc cells): 0.865 µM
IC50 (PC9luc-OSIMR cells): 3.35 µM
IC50 (Yap1:Oct4 interaction): 0.564 µM
Compound: O=C(CC1CCN(CCCc2ccc(Cl)c(Cl)c2)CC1)Nc1ccc(OCc2ccccc2)cc1 [SR7-053]
IC50 (PC9 cells; PC9, read-out: IC50 MTT): 1.16 µM

IC50 (Yap1:Oct4 interaction): 0.707 µM
Compound: O=C(CC1CCN(CCCc2cccc(F)c2)CC1)Nc1ccc(OCc2ccccc2)cc1 [SR7-057]

IC50 (Yap1:Oct4 interaction): 1.3 µM
Compound: N#Cc1ccc(CCCN2CCC(CC(=O)Nc3ccc(OCc4ccccc4)cc3)CC2)cc1 [SR7-061]
